# Target: P2X7 (Homo sapiens (Human), UniProt Q99572)
# Assay: P2X7 antagonism in human PBMCs (IL-1β release, LPS + Bz-ATP)
# Assay type: cell-based
# Conditions: 10 μM test compound, LPS 30 ng/ml + 0.5 mM Bz-ATP
# Method: P2X7 Antagonism in Human Peripheral Blood Mononuclear Cells (PBMCs) and Mouse/Human Whole Blood.
# Human blood was collected using a blood donor program. PBMCs were isolated from blood using a Ficoll density gradient technique. Briefly, blood was laid on Ficoll solution and centrifuged at RT for 20 minutes at 2000 rpm. The buffy layer (between red blood cells and plasma) was carefully collected by aspiration, washed with PBS and centrifuged again at 1500 rpm for 15 minutes. The resulting cell pellet was washed and plated on 96 well-plates for experiments. For the Mouse/Human Whole Blood experiments, 150 μl of either mouse or human blood was platted on 96 well-plates. Lipopolysaccharide (LPS) (30 ng/ml) was added to each well and incubated for 1 hour. Test compounds were then added and incubated for 30 minutes. The P2X7 agonist, 2′(3′)-O-(4-benzoylbenzoyl) adenosine 5′-triphosphate (Bz-ATP) was then added at a final concentration of 0.5 mM (PBMC) or 1 mM (blood). Cells were incubated for an additional 1.5 hours. At that point, supernatant was collected and stored for IL-1β assay using manufacturer's protocol for enzyme-linked immunosorbent assay (ELISA). Data was expressed as percent control, where control is defined as the difference in IL-113 release in LPS+Bz-ATP samples and LPS only samples. Data was plotted as response (% control) versus concentration to generate IC50 values. […] In Table 2, when the data cell has been left blank, it is intended to mean that the compound was not tested in that assay.
# Sequence of P2X7 (Q99572 whole entry): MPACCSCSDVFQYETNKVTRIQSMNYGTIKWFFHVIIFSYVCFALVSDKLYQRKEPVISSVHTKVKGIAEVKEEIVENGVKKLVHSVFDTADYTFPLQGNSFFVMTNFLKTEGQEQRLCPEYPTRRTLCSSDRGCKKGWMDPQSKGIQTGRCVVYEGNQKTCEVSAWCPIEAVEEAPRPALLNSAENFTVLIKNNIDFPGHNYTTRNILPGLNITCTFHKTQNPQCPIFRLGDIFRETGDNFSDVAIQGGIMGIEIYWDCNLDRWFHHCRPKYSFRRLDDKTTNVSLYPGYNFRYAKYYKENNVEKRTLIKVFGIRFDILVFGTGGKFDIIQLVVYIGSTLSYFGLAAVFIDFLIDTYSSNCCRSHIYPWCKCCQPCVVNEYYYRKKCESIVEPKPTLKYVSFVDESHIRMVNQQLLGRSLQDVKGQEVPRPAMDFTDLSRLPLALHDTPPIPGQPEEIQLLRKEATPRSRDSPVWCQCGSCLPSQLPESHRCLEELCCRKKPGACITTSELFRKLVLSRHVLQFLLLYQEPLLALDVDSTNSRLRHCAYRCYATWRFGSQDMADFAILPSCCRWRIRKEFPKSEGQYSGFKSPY
row,SMILES,PBMC 10 μM (% control)
1,"C[C@H]1Cn2c(nnc2-c2cnccn2)C(=O)N1Cc1cccc(C(F)(F)F)c1Cl [Example 16, (6S)-7-[2-Chloro-3-(trifluoromethyl)benzyl]-6-methyl-3-pyrazin-2-yl-6,7-dihydro[1,2,4]triazolo[4,3-a]pyrazin-8(5H)-one]",13.4
2,"C[C@H]1Cn2c(nnc2-c2cnccn2)C(=O)N1Cc1cccc(Cl)c1Cl [Example 13, (6S)-7-(2,3-Dichlorobenzyl)-6-methyl-3-pyrazin-2-yl-6,7-dihydro[1,2,4]triazolo[4,3-a]pyrazin-8(5H)-one]",15.4
3,"CC[C@H]1Cn2c(nnc2-c2cnccn2)C(=O)N1Cc1cccc(C(F)(F)F)c1Cl [Example 71, (6S)-7-[2-Chloro-3-(trifluoromethyl)benzyl]-6-ethyl-3-pyrazin-2-yl-6,7-dihydro[1,2,4]triazolo[4,3-a]pyrazin-8(5H)-one]",1.2
4,CC(c1cccc(C(F)(F)F)c1Cl)N1C(=O)c2nnc(-c3cnccn3)n2C[C@@H]1C (stereo partly drawn) [Example 93],4.5

# Same assay, conditions: P2X7, 10 μM test compound, LPS 30 ng/ml + 0.5 mM Bz-ATP, read-out: PBMC 10 μM (% control)
row,SMILES,remaining activity at 10 µM [%]
1,"O=C1c2nnc(-c3ncccn3)n2C[C@H](C2CC2)N1Cc1cccc(C(F)(F)F)c1Cl (single isomer, unassigned) [Example 66, (6S*)-7-[2-Chloro-3-(trifluoromethyl)benzyl]-6-cyclopropyl-3-pyrimidin-2-yl-6,7-dihydro[1,2,4]triazolo[4,3-a]pyrazin-8(5H)-one]",20.7
2,"O=C1c2nnc(-c3ncccn3)n2C[C@@H](C2CC2)N1Cc1cccc(C(F)(F)F)c1Cl (single isomer, unassigned) [Example 65, (6R*)-7-[2-Chloro-3-(trifluoromethyl)benzyl]-6-cyclopropyl-3-pyrimidin-2-yl-6,7-dihydro[1,2,4]triazolo[4,3-a]pyrazin-8(5H)-one]",15.9

# Reference: patent publication US10047092B2 (Janssen Pharmaceutica NV, priority 2013, dated 2018)
